Experimental findings from publication PMC12091851, “Replacing a Cereblon Ligand by a DDB1 and CUL4 Associated Factor 11 (DCAF11) Recruiter Converts a Selective Histone Deacetylase 6 PROTAC into a Pan‐Degrader” (Chemmedchem, 2025) are described below.

For this experiment, the target named is T1, HDAC6 (Homo sapiens, UniProt Q9UBN7).
T1 sequence (Q9UBN7 1-1215): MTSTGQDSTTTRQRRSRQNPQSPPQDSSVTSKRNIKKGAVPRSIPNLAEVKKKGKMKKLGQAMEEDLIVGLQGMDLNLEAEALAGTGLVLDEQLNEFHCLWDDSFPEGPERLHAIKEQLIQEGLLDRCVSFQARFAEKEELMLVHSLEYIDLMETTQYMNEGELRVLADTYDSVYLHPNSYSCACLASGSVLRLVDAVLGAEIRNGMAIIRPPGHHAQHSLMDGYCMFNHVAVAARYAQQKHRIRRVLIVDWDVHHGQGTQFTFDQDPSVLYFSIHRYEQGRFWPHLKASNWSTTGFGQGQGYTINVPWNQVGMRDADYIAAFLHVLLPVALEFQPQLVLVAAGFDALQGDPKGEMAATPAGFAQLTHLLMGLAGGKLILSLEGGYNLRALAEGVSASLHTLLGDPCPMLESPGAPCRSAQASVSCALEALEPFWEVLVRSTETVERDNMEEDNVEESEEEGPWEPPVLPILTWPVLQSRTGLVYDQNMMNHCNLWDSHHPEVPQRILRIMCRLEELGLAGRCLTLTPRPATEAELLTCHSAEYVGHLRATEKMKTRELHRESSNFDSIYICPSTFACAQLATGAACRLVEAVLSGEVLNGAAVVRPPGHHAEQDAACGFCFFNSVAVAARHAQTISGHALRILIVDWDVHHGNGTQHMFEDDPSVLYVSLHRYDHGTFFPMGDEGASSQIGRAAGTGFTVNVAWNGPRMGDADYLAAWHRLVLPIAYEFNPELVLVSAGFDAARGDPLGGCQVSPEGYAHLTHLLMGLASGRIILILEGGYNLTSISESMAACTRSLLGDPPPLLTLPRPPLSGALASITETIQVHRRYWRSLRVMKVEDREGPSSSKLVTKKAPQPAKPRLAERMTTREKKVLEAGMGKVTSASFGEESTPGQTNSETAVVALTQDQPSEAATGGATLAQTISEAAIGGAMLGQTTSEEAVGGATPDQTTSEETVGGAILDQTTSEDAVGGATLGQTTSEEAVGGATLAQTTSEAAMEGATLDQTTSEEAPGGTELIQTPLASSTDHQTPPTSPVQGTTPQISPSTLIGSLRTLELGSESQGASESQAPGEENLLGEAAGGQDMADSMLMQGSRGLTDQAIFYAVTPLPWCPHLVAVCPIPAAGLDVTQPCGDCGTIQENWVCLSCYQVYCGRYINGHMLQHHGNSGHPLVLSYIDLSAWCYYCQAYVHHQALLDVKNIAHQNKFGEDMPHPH
The experiment in a line: Immunoblot HDAC6 degradation in MM.1S cell lysates. Further details: endogenous in cells; host or cells: MM.1S. The settings on record: MM1.S, MM.1S cells, 24 h, read-out: maximal degradation (Dmax) HDAC6. The experiment is classed as cell-based. As to the method: Figure 6 Examination of HDAC isoform degradation. MM.1S cells were treated with the indicated compounds (10 μM) or vehicle (DMSO) for 24 h. HDAC1, 2, 4, and 6 levels were analyzed by immunoblotting. (A) Representative images from a total of n=3 biological replicates.
2.5. Aqueous Stability Assay
For stability testing in aqueous solution, a 10-fold concentrated DMSO solution of the respective compounds was diluted in DPBS to generate a 10 µM concentration (final DMSO content of 10%).
Samples of the aqueous solutions were taken after 0, 24, 48, and 72 h at room temperature and the amounts of the parental compound and potential fragments were monitored by HPLC gradient A (see 3.1 General Information). The peak area of the 0 h sample was used for normalization. All compounds were tested in duplicates and GraphPad Prim was used for evaluation and data visualization.
The cell lysis was performed as descripted in 3.2. Simple Western Immunoassay. Samples were denatured by Laemmli 2× Concentrate (Catalog# S3401-10VL, Sigma-Aldrich) for 5 min at 95 °C, and […]
Bio-Rad, Hercules, CA, USA). […]
6.1 (Bio-Rad) for quantification. […]
In vitro inhibitory activities against HDAC1, 2 , and 6 were measured using a previously published protocol.[3] In vitro inhibitory activities against HDAC4 were measured using a previously published protocol with slight modifications. […]

SMILES strings stand for the structures.

As to `O=C(CCCCCCNC(=O)c1ccc(NC(=O)CCCCCCCCCCCN(C(=O)CCl)C(C(=O)NCc2ccccc2)c2ccc(Cl)c(Cl)c2)cc1)NO` (centres unmarked) [Compound 1j], the Dmax at 10 µM lay within 71 to 76%.
The same measure for `O=C(CCCCCCNC(=O)c1ccc(N(C(=O)CCl)C(C(=O)NCc2ccccc2)c2ccc(Cl)c(Cl)c2)cc1)NO` (centres unmarked) [Compound 2]: 26%.
